The structures appear in SMILES notation. ≈ marks a conversion by molar mass, not a printed value. Where two headings read alike, the source gives them in different places.

Data on 5 compounds can be found in patent US20080262031A1, “4-Aminoquinoline Derivatives as Antimalarials” (CTG PHARMA S.R.L., priority 2005, published 2008).

Test [1] concerns chloroquine-sensitive (CQ-S) Plasmodium falciparum strain D10. Briefly: in vitro antimalarial activity on chloroquine-sensitive strain D10. The class given is cell-based.
Test [2] concerns chloroquine-resistant (CQ-R) Plasmodium falciparum strain W2. Briefly: in vitro antimalarial activity on chloroquine-resistant strain W2. The class given is cell-based.
The mark [3] stands for this setting: P. falciparum strain D10, chloroquine-sensitive, n = 4 ± SD, read-out: D10 (CQ-S) IC50.
Setting [4] is: P. falciparum strain W2, chloroquine-resistant, n = 4 ± SD, read-out: W2 (CQ-R) IC50.

With `Oc1cc(Nc2ccnc3cc(Cl)ccc23)ccc1CNC[C@@H]1CCCN2CCCC[C@H]12` [Example 3], the IC50 is 0.0103 ± 0.0019 µg/mL (≈ 0.0228 µM) in test [1] (setting [3]) and 0.0114 ± 0.0021 µg/mL (≈ 0.0253 µM) in test [2] (setting [4]).

On to `CCN(CC)CCCC(C)Nc1ccnc2cc(Cl)ccc12` (stereo not shown) [Chloroquine, chloroquine, reference compound], for which the concentration for half-maximal inhibition (IC50) worked out at 0.0097 ± 0.0036 µg/mL (≈ 0.0303 µM) in test [1] (D10, read-out: D10 (CQ-S) IC50) and 0.17 ± 0.0413 µg/mL (≈ 0.532 µM) in test [2] (W2, read-out: W2 (CQ-R) IC50).

Take `Oc1cc(Nc2ccnc3cc(Cl)ccc23)ccc1CNCCC12CCCN1CCC2` [Example 4]: the half-maximal inhibitory concentration (IC50) is 0.0172 ± 0.0019 µg/mL (≈ 0.0394 µM) in test [1] (setting [3]) and less than 0.08 µg/mL in test [2] (setting [4]).

Turning to `Clc1ccc2c(NCC34CCCN3CCC4)ccnc2c1` [Example 2, N-(7-chloro-quinolin-4-yl)-(tetrahydropyrrolizin-7a-yl)-methylamine], the IC50 was found to be 0.0092 ± 0.0022 µg/mL (≈ 0.0305 µM) in test [1] (setting [3]) and 0.0087 ± 0.0035 µg/mL (≈ 0.0288 µM) in test [2] (setting [4]).

On to `Clc1ccc2c(NCCC34CCCN3CCC4)ccnc2c1` [Example 1, N-(7-chloro-quinolin-4-yl)-2-(tetrahydropyrrolizin-7a-yl)-ethylamine], for which the 50% inhibitory concentration (IC50) was 0.0017 ± 0.0014 µg/mL (≈ 0.00538 µM) in test [1] (setting [3]) and 0.0173 ± 0.0024 µg/mL (≈ 0.0548 µM) in test [2] (setting [4]).

For orientation: IC50 means the concentration needed to halve the response being measured.
